In patent publication US10233180B2, “Substituted nitrogen-containing heterocyclic derivatives, pharmaceutical compositions comprising the same and applications of antitumor thereof” (ZHEJIANG UNIVERSITY, priority 2014, dated 2019):

Legend:
[1] = tested on: human colon cancer cell strain HCT-116; test: MTT assay, inhibition of tumor cell growth in vitro, 72 h; format: cell-based; conditions: Homo sapiens, HCT-116, MTT, read-out: Antitumor proliferative activities of tumor cell (IC50, μM) HCT-116 (converted)
In short: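 Cells in RPMI 1640 with FBS, 4000 cells/well, exposed 72 h at 37 °C, 5% CO2 to final 50, 10, 2, 0.4 and 0.08 μM; 1% DMSO blank. MTT OD gives % inhibition versus control; IC50 derived by Bliss method.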

Akt1 = molecular target: T1, Akt1 (Homo sapiens, UniProt P31749); test: AKT1/PKBα KinEASE FP Fluorescein Green Assay (fluorescence polarization kinase kit); format: biochemical; conditions: 1 h reaction, read-out: Inhibitory activities against Akt1 (IC50)
T1 construct: purchased 32-021
T1 sequence (P31749 whole entry): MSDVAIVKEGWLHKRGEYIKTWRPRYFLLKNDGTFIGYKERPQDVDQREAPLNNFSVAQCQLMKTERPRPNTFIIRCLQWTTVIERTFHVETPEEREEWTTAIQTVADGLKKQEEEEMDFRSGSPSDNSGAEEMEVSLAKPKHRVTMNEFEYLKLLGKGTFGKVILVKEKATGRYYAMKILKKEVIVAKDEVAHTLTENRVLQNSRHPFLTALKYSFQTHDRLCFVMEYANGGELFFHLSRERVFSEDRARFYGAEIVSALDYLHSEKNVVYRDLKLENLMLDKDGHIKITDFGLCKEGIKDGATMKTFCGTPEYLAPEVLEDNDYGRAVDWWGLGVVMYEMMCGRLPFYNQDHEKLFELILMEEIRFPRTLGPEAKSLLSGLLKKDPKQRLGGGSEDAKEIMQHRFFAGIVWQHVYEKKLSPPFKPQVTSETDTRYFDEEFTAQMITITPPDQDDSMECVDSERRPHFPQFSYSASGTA
In short: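 FP competition kinase assay: compounds (50 μM stock) with STK Substrate 3 and ATP, 1 h reaction at room temperature; stopped with stop/antibody mix, 4 h at room temperature, then polarization read. Inhibition derived from polarization values; IC50 calculated; triplicate wells.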

[2] = tested on: Human ovarian cancer cell strain OVCAR-8; test: MTT assay, inhibition of tumor cell growth in vitro, 72 h; format: cell-based; conditions: Homo sapiens, OVCAR-8, MTT, read-out: Antitumor proliferative activities of tumor cell (IC50, μM) OVCAR-8
In short: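 OVCAR8 cells in RPMI 1640 plus FBS were seeded at 4000 cells/well and exposed for 72 h at 37 °C to compound at 50, 10, 2, 0.4 and 0.08 μM final, with 1% DMSO as blank. Inhibition was calculated from OD relative to control, and IC50 was derived by the Bliss method.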

| SMILES | IC50 [1] [µM] | IC50 (Akt1) [nM] | IC50 [2] [µM] |
| --- | --- | --- | --- |
| C[C@H]1CNC[C@@H](NC(=O)c2cc(-c3c(Cl)cnn3C)c(Cl)o2)[C@@H]1c1cccc(F)c1 [Compound 136, 5-chloro-4-(4-chloro-1-methyl-1H-pyrazol-5-yl)-N-((3S, 4S, 5R)-4-(3-fluorophenyl)-5-methylpiperidin-3-yl)furan-2-formamide] | 2.81 | 2 | 3.68 |
| CCC[C@H]1CNC[C@@H](NC(=O)c2cc(-c3c(Cl)cnn3C)c(Cl)o2)[C@@H]1c1cccc(F)c1 [Compound 137, 5-chloro-4-(4-chloro-1-methyl-1H-pyrazol-5-yl)-N-((3S, 4S, 5R)-4-(3-fluorophenyl)-5-propylpiperidin-3-yl)furan-2-formamide] | 0.43 | 1 | 1.88 |
| Cn1ncc(Cl)c1-c1ccc(C(=O)N[C@@H]2CNCC[C@H]2c2cccc(F)c2)s1 [Compound 138, 5-(4-chloro-1-methyl-1H-pyrazol-5-yl)-N-((3S,4S)-4-(3-fluorophenyl)piperidin-3-yl)thiophene-2-formamide] | 0.56 | 1 | 3.01 |
| Cn1ncc(Cl)c1-c1sc(C(=O)N[C@@H]2CNCC[C@H]2c2cccc(F)c2)cc1Cl [Compound 139, 4-chloro-5-(4-chloro-1-methyl-1H-pyrazol-5-yl)-N-((3S, 4S)-4-(3-fluorophenyl)piperidin-3-yl)thiophene-2-formamide] | 2.51 | 0.7 | 1.44 |
| Cn1ncc(CO)c1-c1ccc(C(=O)N[C@@H]2CNCC[C@H]2c2cccc(F)c2)s1 [Compound 141, N-((3S, 4S)-4-(3-fluorophenyl)piperidin-3-yl)-5-(4-(hydroxylmethyl)-1-methyl-1H-pyrazol-5-yl)thiophene-2-formamide] | 6.56 | 12 | 1.05 |
| Cn1ncc(C(=O)O)c1-c1ccc(C(=O)N[C@@H]2CNCC[C@H]2c2cccc(F)c2)s1 [Compound 142] | 3.09 | 2 | 1.62 |
| CC(O)c1cnn(C)c1-c1ccc(C(=O)N[C@@H]2CNCC[C@H]2c2cccc(F)c2)s1 (stereo partly drawn) [Compound 143, N-((3S, 4S)-4-(3-fluorophenyl)piperidin-3-yl)-5-(4-(1-hydroxyethyl)-1-methyl-1H-pyrazol-5-yl)thiophene-2-formamide] | 0.08 | 0.7 | 0.04 |
| C=Cc1cnn(C)c1-c1ccc(C(=O)N[C@@H]2CNCC[C@H]2c2cccc(F)c2)s1 [Compound 144, N-((3S, 4S)-4-(3-fluorophenyl)piperidin-3-yl)-5-(1-methyl-4-vinyl-1H-pyrazol-5-yl)thiophene-2-formamide] | 3.68 | 2 | 3.48 |
| CCc1cnn(C)c1-c1ccc(C(=O)N[C@@H]2CNCC[C@H]2c2cccc(F)c2)s1 [Compound 145, 5-(4-ethyl-1-methyl-1H-pyrazol-5-yl)-N-((3S, 4S)-4-(3-fluorophenyl)piperidin-3-yl)thiophene-2-formamide] | 1.47 | 4 | 1.06 |
| C[C@H]1CNC[C@@H](NC(=O)c2ccc(-c3c(Cl)cnn3C)s2)[C@@H]1c1cccc(F)c1 [Compound 150, 5-(4-chloro-1-methyl-1H-pyrazol-5-yl)-N-((3S, 4S, 5R)-4-(3-fluorophenyl)-5-methylpiperidin-3-yl)thiophene-2-formamide] | 4.43 | 3 | 1.19 |
| CNC(=O)CC1C[C@@H](c2ccc(F)c(F)c2)[C@H](NC(=O)c2ccc(-c3c(Cl)cnn3C)s2)CN1 (stereo partly drawn) [Compound 152, 5-(4-chloro-1-methyl-1H-pyrazol-5-yl)-N-((3S,4S)-4-(3,4-difluorophenyl)-6-(2-(methylamido)-2-oxoethyl)piperidin-3-yl)thiophene-2-formamide] | 2.82 | 0.6 | 1.41 |

More lines, now with the values ahead:

| IC50 [1] [µM] | IC50 (Akt1) [nM] | IC50 [2] [µM] | SMILES |
| --- | --- | --- | --- |
| 1.1 | 1 | 6.67 | Cn1ncc(-c2ccncc2)c1-c1ccc(C(=O)N[C@@H]2CNCC[C@H]2c2cccc(F)c2)s1 [Compound 140, N-((3S, 4S)-4-(3-fluorophenyl)piperidin-3-yl)-5-(1-methyl-4-(pyridinyl-4-yl)-1H-pyrazol-5-yl)thiophene-2-formamide] |
| 0.44 | 7 | 4.19 | Cn1nccc1-c1ccc(C(=O)N[C@@H]2CNCC[C@H]2c2cccc(F)c2)s1 [Compound 146, N-((3S, 4S)-4-(3-fluorophenyl)piperidin-3-yl)-5-(1-methyl-1H-pyrazol-5-yl)thiophene-2-formamide] |
| 0.36 | 9 | 2.43 | Cn1ncc(Br)c1-c1ccc(C(=O)N[C@@H]2CNCC[C@H]2c2cccc(F)c2)s1 [Compound 147, 5-(4-bromo-1-methyl-1H-pyrazol-5-yl)-N-((3S,4S)-4-(3-fluorophenyl)piperidin-3-yl)thiophene-2-formamide] |
| 1.23 | 5 | 0.67 | Cn1ncc(-c2ccccc2)c1-c1ccc(C(=O)N[C@@H]2CNCC[C@H]2c2ccc(F)c(F)c2)s1 [Compound 148, N-((3S, 4S)-4-(3,4-difluorophenyl)piperidin-3-yl)-5-(1-methyl-4-phenyl-1H-pyrazol-5-yl)thiophene-2-formamide] |
| 2.56 | 7 | 3.21 | CNC(=O)CC1C[C@@H](c2cccc(F)c2)[C@H](NC(=O)c2cc(Cl)c(-c3c(Cl)cnn3C)s2)CN1 (stereo partly drawn) [Compound 149, 4-chloro-5-(4-chloro-1-methyl-1H-pyrazol-5-yl)-N-((3S, 4S)-4-(3-fluorophenyl)-6-(2-(methylamido)-2-oxoethyl)piperidin-3-yl)thiophene-2-formamide] |
| 2.5 | 1 | 1.52 | CCC[C@H]1CNC[C@@H](NC(=O)c2ccc(-c3c(Cl)cnn3C)s2)[C@@H]1c1cccc(F)c1 [Compound 151, 5-(4-chloro-1-methyl-1H-pyrazol-5-yl)-N-((3S, 4S, 5R)-4-(3-fluorophenyl)-5-propylpiperidin-3-yl)thiophene-2-formamide] |
